Assay results taken from patent publication US6017917A, “Guanidine derivatives” (Fujisawa Pharamceutical Co., Ltd., priority 1996, dated 2000).
Counter-ions that a name gives are not always drawn.

Target: T1, Na^+ /H^+ exchanger (Rattus norvegicus, UniProt P26431)
T1 construct: endogenous in cells; host or cells: thymocytes freshly isolated from the thymus of a male SD rat
Assay: Inhibitory activity on Na^+ /H^+ exchange in cells (swelling of thymocytes in sodium propionate medium)
Assay type: cell-based, rat (SD strain)
Conditions: apparent Ki from Lineweaver-Burk plot, sodium-propionate medium pH 6.8, rate of swelling, 3-5 concentrations
Protocol: [2] Inhibitory activity on Na^+ /H^+ exchange in cells
Procedure was carried out according to a similar manner to the method described in Enzymology 173 , 777 (1989).
One male SD strain rat weighing 250-300 g was sacrificed with the blow on the head. Then, the thymus was removed into ice-cold NaCl medium (140 mM sodium chloride, 1 mM potassium chloride, 1 mM calcium chloride, 1 mM magnesium chloride, 10 mM glucose and 20 mM N-2-hydroxyethylpiperazine-N'-2-ethanesulfonic acid (HEADS)--pH 7.3), cut in small fragments, and transferred to glass homogenizer. The cells were dissociated by gentle strokes, and the resulting suspension was filtrated through six layers of surgical gauze and the filtrate was centrifuged at 4° C. at 1000 g for 5 minutes. The pellet was resuspended in RPMI 1640 medium (pH 7.3) at room temperature to adjust final cell concentration (1×10^7 cells/ml).
This method detects the swelling that accompanies activation of Na^+ /H^+ exchanger in cells incubated with sodium propionate. Propionic acid rapidly penetrates through the membrane. […]
Cell sizing and counting were performed electrically with the Coulter Counter-Channelyzer (AT-II). […] Rate of Swelling (Δ volume/min.) was measured by using 3-5 concentrations of test compound. Then, apparent Ki value of test compound was calculated by using Line weaver-Burk plot.

T1 sequence (P26431 whole entry): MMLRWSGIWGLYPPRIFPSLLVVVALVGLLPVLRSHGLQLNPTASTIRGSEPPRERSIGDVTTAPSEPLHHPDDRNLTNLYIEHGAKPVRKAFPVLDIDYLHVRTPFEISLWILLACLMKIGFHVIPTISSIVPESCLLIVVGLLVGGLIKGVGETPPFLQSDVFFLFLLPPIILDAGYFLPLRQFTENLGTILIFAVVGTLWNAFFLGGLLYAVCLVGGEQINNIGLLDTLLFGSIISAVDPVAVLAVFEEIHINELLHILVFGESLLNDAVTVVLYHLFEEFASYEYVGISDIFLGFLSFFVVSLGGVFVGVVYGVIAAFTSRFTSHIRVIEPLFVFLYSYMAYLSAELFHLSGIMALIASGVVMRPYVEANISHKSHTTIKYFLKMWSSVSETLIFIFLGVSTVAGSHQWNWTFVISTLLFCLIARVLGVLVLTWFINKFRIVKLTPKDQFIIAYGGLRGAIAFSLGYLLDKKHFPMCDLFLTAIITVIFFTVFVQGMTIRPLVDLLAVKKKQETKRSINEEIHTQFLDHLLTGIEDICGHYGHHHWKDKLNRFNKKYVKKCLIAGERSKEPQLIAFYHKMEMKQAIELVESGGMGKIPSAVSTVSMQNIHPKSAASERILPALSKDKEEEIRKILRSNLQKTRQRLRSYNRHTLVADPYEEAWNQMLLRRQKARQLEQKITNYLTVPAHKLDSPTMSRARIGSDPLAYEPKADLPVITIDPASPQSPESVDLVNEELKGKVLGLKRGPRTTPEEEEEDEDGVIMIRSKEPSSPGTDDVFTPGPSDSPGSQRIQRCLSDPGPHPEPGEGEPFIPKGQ

## NC(N)=NC(=O)c1cc(C(=O)NCCN2CCOCC2)cc(-c2cc(Cl)ccc2Cl)c1 [(a), [5-(2,5-dichlorophenyl)-3-[(2-morpholinoethyl)-carbamoyl]benzoyl]guanidine.dihydrochloride]
  Ki: < 100 nM
